Test results from patent publication US20060115571A1, “Functional foods/drinks containing antiallergic component” (priority 2002, published 2006).

Experiment: stability during the process of preparing the hard candy
Settings: powder of an extract of "Benifuki" made into hard candy
Protocol: Using a powder of an extract of “Benifuki”, a hard candy was prepared. Methylcatechin was contained at 2.7% in the powder of the extract, so one hard candy was designed to contain 3 mg of methylcatechin.

Structure (SMILES): O=C1C[C@@H]2OCC=C3CN4CC[C@]56c7ccccc7N1[C@H]5[C@H]2[C@H]3C[C@H]46 [Strychnine, strychnine]
- stability during the process of preparing the hard candy: stable
